According to US20240174639A1, “PYRIDINE DERIVATIVES USEFUL AS HCN2 MODULATORS” (King's College London, priority 2021, published 2024):
Where a name gives a salt, the structure may show the parent alone.

What was measured:
[1] = target: T1, HCN4 (Homo sapiens, UniProt Q9Y3Q4); assay: HCN4 assay using the Sophion Qube (Example 50B); assay type: cell-based; conditions: Sophion Qube protocol (SQ)
T1 sequence (Q9Y3Q4 1-1203): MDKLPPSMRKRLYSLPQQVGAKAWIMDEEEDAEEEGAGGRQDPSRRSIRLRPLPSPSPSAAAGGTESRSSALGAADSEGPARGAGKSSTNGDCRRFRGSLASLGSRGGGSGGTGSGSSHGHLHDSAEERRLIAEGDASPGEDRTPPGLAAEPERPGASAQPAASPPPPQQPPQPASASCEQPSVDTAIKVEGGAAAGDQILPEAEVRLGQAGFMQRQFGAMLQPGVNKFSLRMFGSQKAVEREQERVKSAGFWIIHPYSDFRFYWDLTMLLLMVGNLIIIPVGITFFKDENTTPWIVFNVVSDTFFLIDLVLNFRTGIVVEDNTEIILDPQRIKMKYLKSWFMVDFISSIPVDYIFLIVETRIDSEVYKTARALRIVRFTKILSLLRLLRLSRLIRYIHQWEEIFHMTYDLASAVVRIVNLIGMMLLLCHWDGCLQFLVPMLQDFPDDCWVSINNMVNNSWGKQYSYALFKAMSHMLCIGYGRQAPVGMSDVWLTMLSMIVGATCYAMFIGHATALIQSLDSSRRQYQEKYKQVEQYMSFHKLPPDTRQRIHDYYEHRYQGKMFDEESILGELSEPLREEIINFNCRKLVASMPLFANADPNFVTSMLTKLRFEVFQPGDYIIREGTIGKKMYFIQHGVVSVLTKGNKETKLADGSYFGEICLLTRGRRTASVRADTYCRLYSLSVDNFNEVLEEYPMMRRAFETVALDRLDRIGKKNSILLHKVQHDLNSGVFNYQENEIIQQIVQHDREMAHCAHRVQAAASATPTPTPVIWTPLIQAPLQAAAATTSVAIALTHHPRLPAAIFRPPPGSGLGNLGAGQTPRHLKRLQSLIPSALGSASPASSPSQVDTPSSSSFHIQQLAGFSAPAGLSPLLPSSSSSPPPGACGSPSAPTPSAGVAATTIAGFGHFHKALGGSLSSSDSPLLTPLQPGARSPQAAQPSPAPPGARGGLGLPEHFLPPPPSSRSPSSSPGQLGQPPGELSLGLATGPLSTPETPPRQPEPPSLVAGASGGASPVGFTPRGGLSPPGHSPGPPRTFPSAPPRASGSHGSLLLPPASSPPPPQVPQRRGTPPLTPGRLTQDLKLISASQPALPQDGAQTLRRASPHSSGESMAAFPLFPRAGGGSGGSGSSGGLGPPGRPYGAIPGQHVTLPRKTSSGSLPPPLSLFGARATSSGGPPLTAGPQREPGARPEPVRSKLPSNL
Description: Solutions for recording HCN currents were: [table] For HCN4, the cells were held at −30 mV and then stepped to −130 mV for 4 seconds before stepping back to −30 mV, this represents 1 experimental sweep. This voltage protocol was applied every 20 seconds for the duration of the experiment. Both the vehicle (0.3% DMSO) and full block (3 mM CsCl) addition periods were applied for 10 experimental sweeps each. The compound addition period was applied for 30 sweeps. The currents evoked by the step to −110 mV (HCN1 and HCN2) or −130 mV (HCN4) were measured for the analysis of the percentage inhibition by test compounds. The current amplitudes were measured by subtracting metric A from metric B (see FIG. 2) with inhibition calculated by normalising to the vehicle addition (0.3% DMSO) and full inhibition by 3 mM CsCl in the same well. […] In total, compound was applied to the well for 600 seconds.

[2] = target: T2, HCN2 (Homo sapiens, UniProt Q9UL51); assay: HCN2 assay using the Sophion Qube (Example 50B); assay type: cell-based; conditions: Sophion Qube protocol (SQ)
T2 sequence (Q9UL51 1-889): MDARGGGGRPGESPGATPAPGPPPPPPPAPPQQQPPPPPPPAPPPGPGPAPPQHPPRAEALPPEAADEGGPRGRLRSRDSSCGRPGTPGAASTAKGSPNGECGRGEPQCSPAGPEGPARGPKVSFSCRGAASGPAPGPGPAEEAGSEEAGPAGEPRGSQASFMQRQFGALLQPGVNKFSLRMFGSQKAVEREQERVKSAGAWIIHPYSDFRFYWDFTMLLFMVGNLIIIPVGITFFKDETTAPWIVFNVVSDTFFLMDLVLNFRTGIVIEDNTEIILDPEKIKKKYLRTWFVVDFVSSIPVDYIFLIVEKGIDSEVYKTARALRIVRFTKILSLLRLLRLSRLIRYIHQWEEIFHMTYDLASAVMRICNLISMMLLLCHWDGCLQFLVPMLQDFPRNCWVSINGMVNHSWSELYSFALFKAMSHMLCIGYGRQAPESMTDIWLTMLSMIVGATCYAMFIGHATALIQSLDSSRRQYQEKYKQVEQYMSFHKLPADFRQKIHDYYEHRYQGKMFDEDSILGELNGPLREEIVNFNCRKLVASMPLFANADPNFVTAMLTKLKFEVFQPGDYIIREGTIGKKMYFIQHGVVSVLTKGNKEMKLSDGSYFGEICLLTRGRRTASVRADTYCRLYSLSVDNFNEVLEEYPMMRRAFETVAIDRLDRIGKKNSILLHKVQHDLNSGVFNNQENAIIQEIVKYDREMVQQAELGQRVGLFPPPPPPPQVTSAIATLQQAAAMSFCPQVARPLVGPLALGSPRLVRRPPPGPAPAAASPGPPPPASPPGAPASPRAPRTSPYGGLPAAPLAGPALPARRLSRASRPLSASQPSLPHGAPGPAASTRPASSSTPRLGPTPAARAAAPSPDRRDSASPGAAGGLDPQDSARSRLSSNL
Description: Solutions for recording HCN currents were:
For HCN1 and HCN2 the cells were held at −30 mV and then stepped to −110 mV for 2 seconds before stepping back to −30 mV, this represents 1 experimental sweep. This voltage protocol was applied every 20 seconds for the duration of the experiment. Both the vehicle (0.3% DMSO) and full block (3 mM CsCl) addition periods were applied for 10 experimental sweeps each. The compound addition period was applied for 30 sweeps.
The currents evoked by the step to −110 mV (HCN1 and HCN2) or −130 mV (HCN4) were measured for the analysis of the percentage inhibition by test compounds. The current amplitudes were measured by subtracting metric A from metric B (see FIG. 2) with inhibition calculated by normalising to the vehicle addition (0.3% DMSO) and full inhibition by 3 mM CsCl in the same well.
In total, compound was applied to the well for 600 seconds.

Row | SMILES | IC50 [1] [µM] | IC50 [2] [µM]
1 | Cc1cccnc1C[C@H](N)c1ncccc1-n1ncc2cc(Br)ccc21 [Example 30, (S)-1-[3-(5-Bromo-1H-indazole-1-yl)pyridine-2-yl]-2-(3-methylpyr-idine-2-yl)ethan-1-amine hydrochloride] | 22.5 | 0.9
2 | COc1ccc2c(cnn2-c2cccnc2[C@@H](N)Cc2ncccc2F)c1 [Example 32, (S)-2-(3-fluoropyridine-2-yl)-1-[3-(5-methoxy-1H-indazole-1-yl)-pyridine-2-yl]ethan-1-amine hydrochloride] | – | 28.6
3 | Cc1ccc(C#N)nc1C[C@H](N)c1ncccc1-n1ncc2cc(C(F)(F)F)ccc21 [Example 33, (S)-6-{2-Amino-2-[3-(5-trifluoromethyl-1H-indazol-1-yl)pyridine-2-yl]ethyl}-5-methyl-pyridine-2-carbonitrile hydrochloride] | – | 4.9
4 | Cc1ccc(F)c(C[C@H](N)c2ncccc2-n2ncc3cc(F)ccc32)n1 [Example 34, (S)-1-[3-(5-Fluoro-1H-indazole-1-yl)pyridine-2-yl]-2-(3-fluoro-6-methylpyridine-2-yl)-ethan-1-amine hydro-chloride] | – | 4.5
5 | Cc1ccc(C#N)nc1C[C@H](N)c1ncccc1-n1ncc2cc(Cl)ccc21 [Example 35, (S)-6-{2-Amino-2-[3-(5-chloro-1H-indazol-1-yl)pyridine-2-yl]-ethyl}-5-methylpyr-idine-2-carbonitrile] | 4.3 | 0.46
6 | Cc1ccc(C#N)nc1C[C@H](N)c1ncccc1-n1ncc2cc(Br)ccc21 [Example 36, hydrochloride] | 4.7 | 0.77
7 | COc1ccc2c(cnn2-c2cccnc2[C@@H](N)Cc2nc(C#N)ccc2F)c1 [Example 37] | – | 6.7
8 | N#Cc1ccc(F)c(C[C@H](N)c2ncccc2-n2ncc3cc(F)ccc32)n1 [Example 38, (S)-6-{2-Amino-2-[3-(5-fluoro-1H-indazol-1-yl)pyridine-2-yl]ethyl}-5-fluoropyridine-2-carbonitrile] | > 30 | 0.79
9 | Cc1ccc2c(cnn2-c2cccnc2[C@@H](N)Cc2nc(C#N)ccc2F)c1 [Example 39, (S)-6-{2-Amino-2-[3-(5-methyl-1H-indazol-1-yl)pyridine-2-yl]-ethyl}-5-fluoropyr-idine-2-carbonitrile hydrochloride] | 3.7 | 0.31
10 | N[C@@H](Cc1ncccc1F)c1ncccc1-n1ncc2cc(C(F)(F)F)ccc21 [Example 40, (S)-1-[3-(5-Trifluoro-methyl-1H-indazole-1-yl)pyridine-2-yl]-2-(3-fluoropyridine-2-yl)-ethan-1-amine hydro-chloride] | – | 11.7
11 | CS(=O)(=O)c1ccc(F)c(C[C@H](N)c2ncccc2-n2ncc3cc(Cl)ccc32)n1 [Example 41, (S)-1-[3-(5-Chloro-1H-indazole-1-yl)-pyridine-2-yl]-2-(3-fluoro-6-methylsulfon-ylpyridine-2-yl)ethan-1-amine hydrochloride] | > 30 | 3.9
12 | Cc1ccc(C#N)nc1C[C@H](N)c1cnccc1-n1ncc2cc(Cl)ccc21 [Example 42, (S)-6-{2-Amino-2-[4-(5-chloro-1H-indazol-1-yl)pyridine-3-yl]-ethyl}-5-methylpyr-idine-2-carbonitrile hydrochloride] | – | 4.9
13 | N#Cc1ccc(F)c(C[C@H](N)c2ncccc2-n2ncc3cc(Br)ccc32)n1 [Example 43, (S)-6-{2-Amino-2-[3-(5-bromo-1H-indazol-1-yl)pyridine-2-yl-ethyl}-5-fluoropyr-idine-2-carbonitrile hydrochloride] | – | 0.78
14 | Cc1ccc(F)c(C[C@H](N)c2ncccc2-n2ncc3cc(Cl)ccc32)n1 [Example 44, (S)-1-[3-(5-Chloro-1H-indazole-1-yl)pyridine-2-yl]-2-(3-fluoro-6-methylpyridine-2-yl)-ethan-1-amine hydro-chloride] | – | 1.5
15 | N#Cc1ccc(F)c(C[C@H](N)c2ncccc2-n2ncc3cc(Cl)ccc32)n1 [Example 45, (S)-6-{2-Amino-2-[3-(5-chloro-1H-indazol-1-yl)pyridine-2-yl-ethyl}-5-fluoropyr-idine-2-carbonitrile hydrochloride] | 3.4 | 0.6
16 | N#Cc1nc(C[C@H](N)c2ncccc2-n2ncc3cc(Br)ccc32)ccc1F [Example 46, (S)-6-{2-Amino-2-[3-(5-bromo-1H-indazol-1-yl)pyridine-2-yl]-ethyl}-3-fluoropyr-idine-2-carbonitrile hydrochloride] | – | 1.2
17 | Cc1ccc(C#N)nc1C[C@H](N)c1ncccc1-n1ncc2cc(F)ccc21 [Example 47] | 10 | 0.63
18 | CS(=O)(=O)c1ccc(F)c(C[C@H](N)c2ncccc2-n2ncc3cc(Br)ccc32)n1 [Example 48, (S)-1-[3-(5-Bromo-1H-indazole-1-yl)pyridine-2-yl]-2-(3-fluoro-6-methylsulfonylpyr-idine-2-yl)ethan-1-amine hydrochloride] | 11.1 | 2.1
